Data: PubChem BioAssay (NCI)
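96-well plates; 48 h exposure; 5 concentrations. Endpoints by linear interpolation between flanking doses. Not reached: highest tested concentration assigned. TGI denotes the concentration required for complete inhibition of growth.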

Key:
Test in all cases: NCI tumour cell line growth inhibition, 48 h
786-0 renal = tested on: 786-0 renal
A498 renal = tested on: A498 renal
A549 NSCLC = tested on: A549 NSCLC
ACHN renal = tested on: ACHN renal
CAKI-1 renal = tested on: CAKI-1 renal
CCRF-CEM leukemia = tested on: CCRF-CEM leukemia
COLO 205 colon = tested on: COLO 205 colon
DLD-1 colon = tested on: DLD-1 colon
DMS 114 small cell lung = tested on: DMS 114 small cell lung
DMS 273 small cell lung = tested on: DMS 273 small cell lung
EKVX NSCLC = tested on: EKVX NSCLC
HCC-2998 colon = tested on: HCC-2998 colon
HCT-15 colon = tested on: HCT-15 colon
HL-60(TB) leukemia = tested on: HL-60(TB) leukemia
HOP-18 NSCLC = tested on: HOP-18 NSCLC
HOP-62 NSCLC = tested on: HOP-62 NSCLC
HT29 colon = tested on: HT29 colon
IGROV1 ovarian = tested on: IGROV1 ovarian
K-562 leukemia = tested on: K-562 leukemia
KM12 colon = tested on: KM12 colon
KM20L2 colon = tested on: KM20L2 colon
LOX IMVI melanoma = tested on: LOX IMVI melanoma
LXFL 529 NSCLC = tested on: LXFL 529 NSCLC
M14 melanoma = tested on: M14 melanoma
M19-MEL melanoma = tested on: M19-MEL melanoma
MALME-3M melanoma = tested on: MALME-3M melanoma
MOLT-4 leukemia = tested on: MOLT-4 leukemia
NCI-H226 lung = tested on: NCI-H226 lung
NCI-H23 lung = tested on: NCI-H23 lung
NCI-H460 lung = tested on: NCI-H460 lung
NCI-H522 lung = tested on: NCI-H522 lung
OVCAR-3 ovarian = tested on: OVCAR-3 ovarian
OVCAR-4 ovarian = tested on: OVCAR-4 ovarian
OVCAR-5 ovarian = tested on: OVCAR-5 ovarian
OVCAR-8 ovarian = tested on: OVCAR-8 ovarian
RPMI-8226 leukemia = tested on: RPMI-8226 leukemia
RXF-631 renal = tested on: RXF-631 renal
SF-268 CNS = tested on: SF-268 CNS
SF-295 CNS = tested on: SF-295 CNS
SF-539 CNS = tested on: SF-539 CNS
SK-MEL-2 melanoma = tested on: SK-MEL-2 melanoma
SK-MEL-28 melanoma = tested on: SK-MEL-28 melanoma
SK-MEL-5 melanoma = tested on: SK-MEL-5 melanoma
SK-OV-3 ovarian = tested on: SK-OV-3 ovarian
SN12C renal = tested on: SN12C renal
SNB-19 CNS = tested on: SNB-19 CNS
SNB-75 CNS = tested on: SNB-75 CNS
SNB-78 CNS = tested on: SNB-78 CNS
SW-620 colon = tested on: SW-620 colon
TK-10 renal = tested on: TK-10 renal
U251 CNS = tested on: U251 CNS
UACC-257 melanoma = tested on: UACC-257 melanoma
UACC-62 melanoma = tested on: UACC-62 melanoma
UO-31 renal = tested on: UO-31 renal
XF 498 CNS = tested on: XF 498 CNS
HCT-116 colon = tested on: HCT-116 colon
HOP-92 NSCLC = tested on: HOP-92 NSCLC
MCF7 breast = tested on: MCF7 breast
NCI/ADR-RES ovarian = tested on: NCI/ADR-RES ovarian
P388 leukemia = tested on: P388 leukemia
P388/ADR leukemia = tested on: P388/ADR leukemia
RXF 393 renal = tested on: RXF 393 renal
SN12K1 renal = tested on: SN12K1 renal
SR leukemia = tested on: SR leukemia

Measured: TGI

CC(=O)c1c(C)n([O-])c2cc(C)c(C)cc2[n+]1=O
not listed: HCT-116 colon | HOP-92 NSCLC | MCF7 breast | NCI/ADR-RES ovarian | P388 leukemia | P388/ADR leukemia | RXF 393 renal | SN12K1 renal | SR leukemia
> 100 µM: all other assays above

CCOC(=O)C(C)NC(=O)N(C)C12CC3CC(CC(C3)C1)C2 (stereo not drawn)
283 µM: HOP-92 NSCLC
489 µM: NCI-H226 lung
> 281 µM: KM12 colon
453 µM: XF 498 CNS
> 451 µM: NCI-H522 lung
> 452 µM: M19-MEL melanoma
> 422 µM: HOP-62 NSCLC
312 µM: DMS 114 small cell lung
323 µM: LOX IMVI melanoma
> 79.3 µM: DLD-1 colon
> 442 µM: NCI-H460 lung
> 479 µM: OVCAR-3 ovarian
490 µM: HCT-15 colon
> 409 µM: P388/ADR leukemia
406 µM: UACC-257 melanoma
286 µM: SK-MEL-5 melanoma
494 µM: SW-620 colon
420 µM: MOLT-4 leukemia
497 µM: MALME-3M melanoma
441 µM: NCI-H23 lung
395 µM: MCF7 breast
> 472 µM: OVCAR-4 ovarian
272 µM: HL-60(TB) leukemia
> 316 µM: COLO 205 colon | SK-MEL-2 melanoma
492 µM: UO-31 renal
> 474 µM: UACC-62 melanoma
> 455 µM: RXF 393 renal
> 404 µM: CAKI-1 renal
424 µM: NCI/ADR-RES ovarian
227 µM: SNB-75 CNS
422 µM: RPMI-8226 leukemia
430 µM: CCRF-CEM leukemia
231 µM: P388 leukemia
442 µM: A498 renal
493 µM: SK-OV-3 ovarian
not listed: 786-0 renal | ACHN renal | LXFL 529 NSCLC | M14 melanoma | RXF-631 renal | TK-10 renal | SR leukemia
> 500 µM: all other assays above

COc1ccc(C2C(N)=NCC2c2ccccn2)cc1 (stereo not drawn)
97.9 µM: HOP-18 NSCLC
not listed: DMS 273 small cell lung | HCT-15 colon | HL-60(TB) leukemia | MCF7 breast | NCI/ADR-RES ovarian | P388 leukemia | P388/ADR leukemia | SN12K1 renal
> 100 µM: all other assays above
